# Test results reported in the supplement of paper PMC10307832.
# Columns and labels:
# Experiment in all cases: relative viability (nuclei count vs DMSO), 5 days (fraction); higher = more cells survive
# [1] = test system: COR-L 105
# Method in brief: (§1)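 Lung cancer cell lines were pin-tool dosed in 1536-well plates on the day after seeding, with either a lone drug or a fixed anchor-drug dose plus five library-drug doses (not always all listed) in √10 steps. Nuclei were counted on 4× images after 5 days. Relative viability is the ratio of treated-well to vehicle-well nuclei counts, with each value a median of duplicate plates.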
# [2] = test system: COR-L23
# Method in brief: as §1
# [3] = test system: EKVX
# Method in brief: as §1
# [4] = test system: HARA
# Method in brief: as §1
# [5] = test system: HCC-15
# Method in brief: as §1
# [6] = test system: HOP-62
# Method in brief: as §1
# [7] = test system: NCI-H1355
# Method in brief: as §1
# [8] = test system: NCI-H1395
# Method in brief: as §1
# [9] = test system: NCI-H1734
# Method in brief: as §1
# [10] = test system: NCI-H1755
# Method in brief: as §1
# [11] = test system: NCI-H1793
# Method in brief: as §1
# [12] = test system: NCI-H1993
# Method in brief: as §1
# [13] = test system: NCI-H2009
# Method in brief: as §1
# [14] = test system: NCI-H2170
# Method in brief: as §1
# [15] = test system: NCI-H2228
# Method in brief: as §1
# [16] = test system: NCI-H2342
# Method in brief: as §1
# [17] = test system: NCI-H2347
# Method in brief: as §1
# [18] = test system: NCI-H358
# Method in brief: as §1
# [19] = test system: NCI-H647
# Method in brief: as §1
# [20] = test system: NCI-H838
# Method in brief: as §1
# [21] = test system: PC-14
# Method in brief: as §1
# [22] = test system: SK-MES-1
# Method in brief: as §1
# [23] = test system: UMC-11
# Method in brief: as §1
structure (smiles),measurement,setting,value
O=C(O)c1ccc(-c2c[nH]c3ncc(-c4ccccc4)cc23)cc1C1CCCC1 + O=C(c1cc(Cc2n[nH]c(=O)c3ccccc23)ccc1F)N1CCN(C(=O)C2CC2)CC1 [Olaparib] (partner 8 µM),relative viability,[1]; first compound 0.04 µM,0.723
same,relative viability,[1]; first compound 0.1265 µM,0.682
same,relative viability,[1]; first compound 0.4 µM,0.75
same,relative viability,[1]; first compound 1.265 µM,0.647
same,relative viability,[2]; first compound 0.04 µM,0.311
same,relative viability,[2]; first compound 0.1265 µM,0.353
same,relative viability,[2]; first compound 0.4 µM,0.279
same,relative viability,[2]; first compound 1.265 µM,0.258
same,relative viability,[3]; first compound 0.04 µM,0.88
same,relative viability,[3]; first compound 0.1265 µM,0.931
same,relative viability,[3]; first compound 0.4 µM,0.866
same,relative viability,[3]; first compound 1.265 µM,0.657
same,relative viability,[4]; first compound 0.04 µM,0.878
same,relative viability,[4]; first compound 0.1265 µM,0.678
same,relative viability,[4]; first compound 0.4 µM,0.886
same,relative viability,[4]; first compound 1.265 µM,0.329
same,relative viability,[5]; first compound 0.04 µM,0.747
same,relative viability,[5]; first compound 0.1265 µM,0.671
same,relative viability,[5]; first compound 0.4 µM,0.56
same,relative viability,[5]; first compound 1.265 µM,0.377
same,relative viability,[6]; first compound 0.04 µM,0.352
same,relative viability,[6]; first compound 0.1265 µM,0.448
same,relative viability,[6]; first compound 0.4 µM,0.356
same,relative viability,[6]; first compound 1.265 µM,0.382
same,relative viability,[7]; first compound 0.04 µM,0.786
same,relative viability,[7]; first compound 0.1265 µM,0.837
same,relative viability,[7]; first compound 0.4 µM,0.666
same,relative viability,[7]; first compound 1.265 µM,0.323
same,relative viability,[8]; first compound 0.04 µM,0.473
same,relative viability,[8]; first compound 0.1265 µM,0.495
same,relative viability,[8]; first compound 0.4 µM,0.495
same,relative viability,[8]; first compound 1.265 µM,0.444
same,relative viability,[9]; first compound 0.04 µM,0.562
same,relative viability,[9]; first compound 0.1265 µM,0.736
same,relative viability,[9]; first compound 0.4 µM,0.568
same,relative viability,[9]; first compound 1.265 µM,0.495
same,relative viability,[10]; first compound 0.04 µM,0.879
same,relative viability,[10]; first compound 0.1265 µM,0.943
same,relative viability,[10]; first compound 0.4 µM,0.885
same,relative viability,[10]; first compound 1.265 µM,0.86
same,relative viability,[11]; first compound 0.04 µM,0.878
same,relative viability,[11]; first compound 0.1265 µM,1.03
same,relative viability,[11]; first compound 0.4 µM,0.963
same,relative viability,[11]; first compound 1.265 µM,0.512
same,relative viability,[12]; first compound 0.04 µM,0.902
same,relative viability,[12]; first compound 0.1265 µM,1.19
same,relative viability,[12]; first compound 0.4 µM,1.04
same,relative viability,[12]; first compound 1.265 µM,0.974
same,relative viability,[13]; first compound 0.04 µM,0.679
same,relative viability,[13]; first compound 0.1265 µM,0.708
same,relative viability,[13]; first compound 0.4 µM,0.653
same,relative viability,[13]; first compound 1.265 µM,0.568
same,relative viability,[14]; first compound 0.04 µM,0.632
same,relative viability,[14]; first compound 0.1265 µM,0.606
same,relative viability,[14]; first compound 0.4 µM,0.569
same,relative viability,[14]; first compound 1.265 µM,0.468
same,relative viability,[15]; first compound 0.04 µM,0.728
same,relative viability,[15]; first compound 0.1265 µM,0.645
same,relative viability,[15]; first compound 0.4 µM,0.626
same,relative viability,[15]; first compound 1.265 µM,0.309
same,relative viability,[16]; first compound 0.04 µM,0.456
same,relative viability,[16]; first compound 0.1265 µM,0.445
same,relative viability,[16]; first compound 0.4 µM,0.501
same,relative viability,[16]; first compound 1.265 µM,0.446
same,relative viability,[17]; first compound 0.04 µM,0.593
same,relative viability,[17]; first compound 0.1265 µM,0.608
same,relative viability,[17]; first compound 0.4 µM,0.54
same,relative viability,[17]; first compound 1.265 µM,0.51
same,relative viability,[18]; first compound 0.04 µM,0.603
same,relative viability,[18]; first compound 0.1265 µM,0.657
same,relative viability,[18]; first compound 0.4 µM,0.529
same,relative viability,[18]; first compound 1.265 µM,0.275
same,relative viability,[19]; first compound 0.04 µM,0.5
same,relative viability,[19]; first compound 0.1265 µM,0.619
same,relative viability,[19]; first compound 0.4 µM,0.494
same,relative viability,[19]; first compound 1.265 µM,0.322
same,relative viability,[20]; first compound 0.04 µM,0.76
same,relative viability,[20]; first compound 0.1265 µM,0.858
same,relative viability,[20]; first compound 0.4 µM,0.732
same,relative viability,[20]; first compound 1.265 µM,0.468
same,relative viability,[21]; first compound 0.04 µM,0.234
same,relative viability,[21]; first compound 0.1265 µM,0.263
same,relative viability,[21]; first compound 0.4 µM,0.268
same,relative viability,[21]; first compound 1.265 µM,0.243
same,relative viability,[22]; first compound 0.04 µM,0.716
same,relative viability,[22]; first compound 0.1265 µM,0.687
same,relative viability,[22]; first compound 0.4 µM,0.58
same,relative viability,[22]; first compound 1.265 µM,0.286
same,relative viability,[23]; first compound 0.04 µM,0.366
same,relative viability,[23]; first compound 0.1265 µM,0.307
same,relative viability,[23]; first compound 0.4 µM,0.825
same,relative viability,[23]; first compound 1.265 µM,0.398
